Here are results for four compounds from patent US20050026836A1, “Composition for the treatment of damaged tissue” (priority 1999, published 2005).

The target in series [1] is T1, MMP-3 (Homo sapiens, UniProt P08254).
T1 construct: made in house
The experiment in a line: Reduction of MMP-3-catalysed degradation of KGF-2. The format is biochemical. Particulars: MMP-3 / KGF-2, read-out: Percentage inhibition of proteolysis.

Series [2] has as its target T2, catalytic domain human MMP-14 (Homo sapiens, UniProt P50281).
T2 construct: made in house
Nature of the series: MMP-14 fluorogenic inhibition assay. The format is biochemical. The following applies: read-out: Calculated Ki(nM) MMP-14. The procedure:
(§1) All enzymes were pre-activated at 37° C. with aminophenylmercuric acetate (APMA) or trypsin before being made up to the final concentrations used in the assay. MMP-1 (30 nM) was activated with 0.93 mM APMA for 20 minutes, MMP-2 (30 nM) was activated with 1.32 mM APMA for 1 hour, MMP-3 (1010 nM) was activated with 1.81 mM APMA for 3 hours or heat activated at 55° C. for three hours, MMP-9 (100 nM) was activated with 2 mM APMA for 2 hours, human MMP-13 (100 nM) was activated with 2 mM APMA for 2 hours, and MMP-14 (900 nM) was activated with 0.9 ng/ml trypsin for 25 minutes, followed by the addition of 4.5 ng/ml trypsin inhibitor.
(§2) For MMP-1, the assay buffer used was 50 mM Tris, 200 mM NaCl, 5 mM CaCl2, 20 μM ZnCl2, 0.05% (w/v) Brij 35, pH 7.5. […] For MMP-13, the assay buffer used was 50 mM Tris, pH 7.5, 200 mM NaCl, 5 mM CaCl2, […] and 0.02% (w/v) Brij 35. For MMP-14, the assay buffer used was 50 mM Tris, 100 mM NaCl, 10 mM CaCl2, 0.25% (w/v) Brij 35, pH 7.5.
MMP-14 inhibition was assayed by incubating activated catalytic domain human MMP-14 at 1 nM in assay buffer with 10 μM Mca-Pro-Leu-Gly-Leu-Dpa-Ala-Arg-NH2 and six concentrations of inhibitor. The incubation was performed at 37° C. for 60 minutes.
(§3) The final assay concentrations of inhibitors used in the MMP-1 assays to determine Ki were 50, 40, 30, 20, 10 and 5 μM. For MMP-2, the final assay concentrations of inhibitors used were 1000, 800, 600, 400, 200 and 100 nM. For MMP-3, the final assay concentrations of inhibitors used were 5, 4, 3, 2, 1 and 0.5 nM. For MMP-9 and MMP-14, the final assay concentrations of inhibitors used were 5, 4, 3, 2, 1 and 0.5 μM.
All assays were carried out in a black 96-well plate with a final volume of 100 μl in each well. Inhibitors were dissolved in dimethylsulphoxide (DMSO) to 1 mM. […] For MMP-2, MMP-3, MMP-9 and MMP-14, fluorescence was read every 2 minutes at […] and 393 nm γem for 1 hour using a Fluorostar fluorimeter (BMG) with BIOLISE software. For MMP-1 assays, the filters used were 355 nm γex and 440 nm γem; fluorescence was read every 2 minutes for 1 hour. […]

For series [3], the target named is catalytic domain of human MMP-2 (Homo sapiens, UniProt P08253). The experiment in a line: MMP-2 fluorogenic inhibition assay. Type of series: biochemical. Particulars: read-out: Calculated Ki(nM) MMP-2. How it is done:
(§4) All enzymes were pre-activated at 37° C. with aminophenylmercuric acetate (APMA) or trypsin before being made up to the final concentrations used in the assay.
(§5) For MMP-1, the assay buffer used was 50 mM Tris, 200 mM NaCl, 5 mM CaCl2, 20 μM ZnCl2, 0.05% (w/v) Brij 35, pH 7.5. […] For MMP-13, the assay buffer used was 50 mM Tris, pH 7.5, 200 mM NaCl, 5 mM CaCl2, […] and 0.02% (w/v) Brij 35.
(§6) MMP-2, MMP-3 and MMP-9 inhibition was assayed by incubating activated catalytic domain of human MMP-2, MMP-3 and MMP-9 at 1 nM in assay buffer with 5 μM substrate Mca-Arg-Pro-Lys-Pro-Tyr-Ala-Nva-Trp-Met-Lys(Dnp)-NH2, and six different concentrations of inhibitor. The incubation was performed at 37° C. for 60 minutes.
(§7) For MMP-2, the final assay concentrations of inhibitors used were 1000, 800, 600, 400, 200 and 100 nM. For MMP-3, the final assay concentrations of inhibitors used were 5, 4, 3, 2, 1 and 0.5 nM. For MMP-9 and MMP-14, the final assay concentrations of inhibitors used were 5, 4, 3, 2, 1 and 0.5 μM.
All assays were carried out in a black 96-well plate with a final volume of 100 μl in each well. Inhibitors were dissolved in dimethylsulphoxide (DMSO) to 1 mM. Solutions were then serially diluted in buffer to give the final concentrations shown. […]

The target in series [4] is T3, catalytic domain of human MMP-3 (Homo sapiens, UniProt P08254).
T3 construct: made in house
T3 sequence (P08254 100-272 limits assumed): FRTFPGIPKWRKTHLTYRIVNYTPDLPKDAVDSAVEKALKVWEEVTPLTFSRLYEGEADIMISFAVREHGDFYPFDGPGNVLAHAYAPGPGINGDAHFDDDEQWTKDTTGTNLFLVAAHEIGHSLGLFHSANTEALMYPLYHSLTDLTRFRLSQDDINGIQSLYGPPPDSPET
Nature of the series: MMP-3 fluorogenic inhibition assay. The format is biochemical. The procedure: as §4, §5, §6, §7
(§8) All assays were carried out in a black 96-well plate with a final volume of 100 μl in each well. Inhibitors were dissolved in dimethylsulphoxide (DMSO) to 1 mM. Solutions were then serially diluted in buffer to give the final concentrations shown.
(§9) These were estimated using the following equation: IC50=(Ki*[…], where S is the substrate concentration and Km the Michaelis-Menton coefficient. Serine Protease Assays

For series [5], the target named is T4, MMP-13 (Homo sapiens, UniProt P45452).
T4 construct: made in house
The experiment in a line: MMP-13 fluorogenic inhibition assay. The following applies: estimated from IC50; read-out: Calculated Ki(nM) MMP-13. Type of series: biochemical. How it is done: as §4, §5
Assays were carried out in 96-well microfluor plates. All incubations were performed at 37° C. and fluorescence readings determined at 360 nm γex and 450 nm γem.
For the assay, the fluorescence values at time zero were subtracted from those determined at 15 or 20 minutes. The % response was then calculated by comparison to positive controls (enzyme, buffer and substrate in the absence of inhibitor). IC50 values were then determined using FitCurve (Excel Tessella Stats add-in).
as §9

Series [6] concerns the target T5, catalytic domain of human MMP-9 (Homo sapiens, UniProt P14780).
T5 sequence (P14780 with tags, fused parts or gaps DEL216-390 limits assumed): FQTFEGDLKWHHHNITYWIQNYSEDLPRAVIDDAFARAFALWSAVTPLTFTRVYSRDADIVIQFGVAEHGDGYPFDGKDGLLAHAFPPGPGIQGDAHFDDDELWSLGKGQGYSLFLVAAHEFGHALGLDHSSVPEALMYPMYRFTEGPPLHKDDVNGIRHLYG
The experiment in a line: MMP-9 fluorogenic inhibition assay. The following applies: read-out: Calculated Ki(nM) MMP-9. The format is biochemical. How it is done:
as §1, §2, §6, §3
All assays were carried out in a black 96-well plate with a final volume of 100 μl in each well. […] For MMP-2, MMP-3, MMP-9 and MMP-14, fluorescence was read every 2 minutes at […] and 393 nm γem for 1 hour using a Fluorostar fluorimeter (BMG) with BIOLISE software. For MMP-1 assays, the filters used were 355 nm γex and 440 nm γem; fluorescence was read every 2 minutes for 1 hour. […]

The target of series [7] is T6, catalytic domain human MMP-1 (Homo sapiens, UniProt P03956).
T6 construct: made in house
T6 sequence (P03956 100-269 limits assumed): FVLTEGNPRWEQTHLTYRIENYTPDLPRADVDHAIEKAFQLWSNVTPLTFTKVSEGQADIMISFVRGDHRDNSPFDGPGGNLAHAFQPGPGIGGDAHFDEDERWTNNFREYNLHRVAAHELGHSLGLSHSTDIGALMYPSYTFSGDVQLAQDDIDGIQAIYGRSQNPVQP
The experiment in a line: MMP-1 fluorogenic inhibition assay. The format is biochemical. The following applies: * limited by compound solubility; read-out: Calculated Ki(nM) MMP-1. How it is done:
as §4, §5
The incubation was performed at 37° C. for 60 minutes.
as §7, §8, §9

In the next series the target is uPA (Homo sapiens, UniProt P00749). Nature of the series: Proteolytic digestion of growth factors by purified uPA. The format is biochemical. Particulars: 37° C., Western blot. On the set-up: High molecular weight human urokinase from urine, 3000 IU/vial (Calbiochem, 672081); purchased Calbiochem 672081; host or cells: human urine; key: significant (represented as ‘+’); a score from significant (represented as ‘+’) to major (represented as ‘+++’); major (represented as ‘+++’); Reduction of parent growth factor not accompanied by the appearance of degradation products is represented by (+). On the technique in general: Immunoblotting shows a protein as a band on a membrane.

Another series has as its target T7, Plasmin (Homo sapiens, UniProt P00747).
T7 construct: Human plasmin, 2 mg/vial (Quadratech, 810665) was reconstituted to 1 mg/ml in buffer; purchased Quadratech 810665
The experiment in a line: Proteolytic digestion of growth factors by purified plasmin. More on the design: key: significant (represented as ‘+’); a score from significant (represented as ‘+’) to major (represented as ‘+++’); major (represented as ‘+++’); Reduction of parent growth factor not accompanied by the appearance of degradation products is represented by (+). The format is biochemical. Particulars: 37° C., Western blot.

Series [8] has as its target T4, MMP-13. Nature of the series: Proteolytic digestion of growth factors by purified MMP-13. Particulars: purified MMP-13, 37° C., Western blot. The format is biochemical. More on the design: key: significant (represented as ‘+’); a score from significant (represented as ‘+’) to major (represented as ‘+++’); major (represented as ‘+++’); Reduction of parent growth factor not accompanied by the appearance of degradation products is represented by (+).
Method: (§10) The extent of proteolysis of the growth factors was assayed by incubating TGF-β2, VEGF, PDGF-BB and KGF-2 with the proteases uPA, plasmin, MMP-3 and MMP-13 in assay buffer (either uPA/plasmin buffer, 50 mM tris-HCl, pH 7.4 or MMP assay buffer, 100 mM Tris, 10 mM NaCl, 10 mM CaCl2, 0.05% (w/v) Brij 35, pH 7.5). […] The growth factors were added to the incubation mixture at a final concentration of 7.9 mg/ml, unless otherwise stated.
(§11) The effects of uPA were determined by incubation at a typical final concentration of 25 μg/ml (1500 U/ml) with each growth factor. The effects of plasmin were determined at a typical final concentration of 0.1 mg/ml by incubation with the individual growth factors in assay buffer. MMP-3 and -13 were incubated at a typical final concentration of 10 nM with the growth factors in assay buffer. […] All incubations were performed in siliconised tubes (Sigma Aldrich, UK).
(§12) All assays were carried out at 37° C. and enzymes were pre-incubated for 15 minutes with or without inhibitor as appropriate, prior to addition of growth factors. After the addition of growth factor, the incubation mixtures were divided into aliquots in siliconised tubes for each time point used. Incubations were carried out over a time course typically of 24 hours, unless otherwise stated. […]

For series [9], the target named is T1, MMP-3. Nature of the series: Proteolytic digestion of growth factors by purified MMP-3. Type of series: biochemical. On the set-up: key: significant (represented as ‘+’); a score from significant (represented as ‘+’) to major (represented as ‘+++’); major (represented as ‘+++’); Reduction of parent growth factor not accompanied by the appearance of degradation products is represented by (+). The following applies: purified MMP-3, 37° C., Western blot.
Method: as §10, §11, §12

The conditions of series [10]: in vivo; cited from earlier work.

T1 sequence (P08254 100-272 limits assumed): as the sequence (P08254 100-272 limits assumed) above
T7 sequence (P00747 581-810 limits assumed): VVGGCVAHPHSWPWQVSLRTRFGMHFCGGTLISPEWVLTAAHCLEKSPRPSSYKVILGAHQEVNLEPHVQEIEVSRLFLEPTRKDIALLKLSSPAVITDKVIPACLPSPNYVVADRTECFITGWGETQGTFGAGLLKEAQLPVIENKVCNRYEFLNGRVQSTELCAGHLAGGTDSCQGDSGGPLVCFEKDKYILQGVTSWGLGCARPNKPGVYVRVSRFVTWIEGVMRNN
T7 sequence (P00747 97-580 partner limits assumed): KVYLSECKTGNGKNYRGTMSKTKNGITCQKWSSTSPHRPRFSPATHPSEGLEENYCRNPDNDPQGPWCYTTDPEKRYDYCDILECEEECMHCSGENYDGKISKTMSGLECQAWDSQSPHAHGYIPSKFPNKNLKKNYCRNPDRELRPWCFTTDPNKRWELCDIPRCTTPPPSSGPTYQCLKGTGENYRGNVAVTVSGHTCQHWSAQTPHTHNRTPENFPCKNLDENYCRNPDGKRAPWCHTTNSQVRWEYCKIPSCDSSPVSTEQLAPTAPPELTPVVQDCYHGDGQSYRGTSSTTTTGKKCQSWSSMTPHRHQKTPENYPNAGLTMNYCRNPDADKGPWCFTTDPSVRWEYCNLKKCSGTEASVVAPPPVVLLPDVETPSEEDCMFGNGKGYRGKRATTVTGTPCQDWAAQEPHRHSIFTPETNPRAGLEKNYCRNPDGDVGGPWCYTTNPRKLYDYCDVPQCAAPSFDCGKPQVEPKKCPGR
Chain of catalytic domain of human MMP-2 (P08253 with tags, fused parts or gaps DEL222-396 limits assumed): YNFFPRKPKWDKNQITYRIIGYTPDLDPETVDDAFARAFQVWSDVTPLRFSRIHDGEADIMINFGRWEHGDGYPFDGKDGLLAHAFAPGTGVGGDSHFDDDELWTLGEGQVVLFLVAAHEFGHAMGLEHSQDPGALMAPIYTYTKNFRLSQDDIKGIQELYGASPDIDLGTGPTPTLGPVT
Method for Plasmin: as §10, §11, §12
Method for uPA: as §10, §11, §12

As a reminder, the inhibition is the drop in the measured response relative to a control, in per cent. One may read the Ki as a measure of affinity in units of concentration, obtained from inhibition or displacement. Take `Cc1cc(C2CCN(S(=O)(=O)C(C)(C)C(=O)NO)CC2)ccc1-c1cccc(OCCO)c1` [compound 9470]: the inhibition at 0.01 µM on MMP-3 [1] (inhibitor 0.01 μM) was found to be 24.5%. In addition, the inhibition at 0.1 µM on MMP-3 [1] (inhibitor 0.1 μM) was determined as 64.5%. Besides, the inhibition at 1 µM at MMP-3 [1] (inhibitor 1 μM) amounted to 72.2%. For the same compound, the inhibition at 10 µM on MMP-3 [1] (inhibitor 10 μM) worked out at 91.1%. The Ki in series [2] is 1710 nM; in series [3] it was 269 nM; in series [4] (read-out: Calculated Ki(nM) MMP-3) it was 1 nM; on MMP-13 [5], 0.95 nM; in series [6], 406 nM; in series [7], 1780 nM. The “Selectivity among MMPs (in words)” value in series [4] (from Ki values of Table 3 (MMP-1, -2, -3, -9, -13, -14)) was “selective dual inhibitor of MMP-3 and MMP-13”.
Consider “TGF-β2: "Human recombinant TGF-β2 and KGF-2 were obtained from R&D Systems"; growth factor”, for which, in the series with uPA, the “Extent of hydrolysis of growth factor by uPA” value is listed as “+”. Besides, the “Extent of hydrolysis of growth factor by Plasmin” value with Plasmin is reported as “++”. Moreover, the “Extent of hydrolysis of growth factor by MMP-13” value with MMP-13 [8] is recorded as “+”. Moreover, the “Extent of hydrolysis of growth factor by MMP-3” value in the series with MMP-3 [9] is given as “(+)”.
Consider transforming growth factor β3 [TGFβ3], for which, in [10], the “half life after injection into venous ulcers” value is “approximately 30 minutes”.
As to “PDGF-BB: "human recombinant PDGF-BB" obtained from Sigma; growth factor”, the “Extent of hydrolysis of growth factor by uPA” value with uPA is “++”. For the same compound, the “Extent of hydrolysis of growth factor by Plasmin” value with Plasmin is “+++”. Also, the “Extent of hydrolysis of growth factor by MMP-13” value in the series with MMP-13 [8] is on record as “(+)”. Besides, the “Extent of hydrolysis of growth factor by MMP-3” value with MMP-3 [9] is “+”.
